Our source for the mortality values is patent EP2684879A1, “Substituted mesoionic compounds for combating animal pests” (priority 2012, dated 2014).

Holding throughout (assay type): in vivo
For assay [1], the system named is tobacco budworm (Heliothis virescens). Kind of assay: Tobacco budworm control, insect diet in 96-well microtiter plates. The note with it: 120 h. The procedure:
For evaluating control of tobacco budworm (Heliothis virescens) the test unit consists of 96-well-microtiter plates containing an insect diet and 15-25 H. virescens eggs. The compounds were formulated using a solution containing 75% v/v water and 25% v/v DMSO. Different concentrations of formulated compounds were sprayed onto the insect diet at 10 µl, using a custom built micro atomizer, at two replications. After application, microtiter plates were incubated at about 28 ± 1°C and about 80 ± 5 % relative humidity for 5 days. Egg and larval mortality was then visually assessed.

In assay [2] the test system is boll weevil (Anthonomus grandis). Kind of assay: Boll weevil control, insect diet in 24-well microtiter plates. The note with it: 120 h, test concentration of 1415 ppm, egg and larval mortality visually assessed after 5 days. The procedure: For evaluating control of boll weevil (Anthonomus grandis) the test unit consists of 24-well-microtiter plates containing an insect diet and 20-30 A. grandis eggs. The compounds were formulated using a solution containing 75% v/v water and 25% v/v DMSO. Different concentrations of formulated compounds were sprayed onto the insect diet at 20 µl, using a custom built micro atomizer, at two replications. After application, microtiter plates were incubated at about 23 ± 1°C and about 50 ± 5 % relative humidity for 5 days. Egg and larval mortality was then visually assessed.

For assay [3], the system named is Southern Armyworm (Spodoptera eridania, 2nd instar larvae). Kind of assay: Southern armyworm, sprayed lima bean plants. Particulars: 96 h, test concentration of 500 ppm, 4 days after treatment, in comparison with untreated controls. The procedure: The active compounds were formulated in cyclohexanone as a 10, 0000 ppm solution supplied in 1.3 ml ABgene® tubes. These tubes were inserted into an automated electrostatic sprayer equipped with an atomizing nozzle and they served as stock solutions for which lower dilutions were made in 50% acetone: 50% water (v/v). A nonionic surfactant (Kinetic®) was included in the solution at a volume of 0.01% (v/v). Lima bean plants (variety Sieva) were grown 2 plants to a pot and selected for treatment at the 1st true leaf stage. Test solutions were sprayed onto the foliage by an automated electrostatic plant sprayer equipped with an atomizing spray nozzle. The plants were dried in the sprayer fume hood and then removed from the sprayer. Each pot was placed into perforated plastic bags with a zip closure. Ten to 11 armyworm larvae were placed into the bag and the bags zipped closed. Test plants were maintained in a growth room at 25°C and 20-40% relative humidity for 4 days, avoiding direct exposure to fluorescent light (24 hour photoperiod) to prevent trapping of heat inside the bags. Mortality and reduced feeding were assessed 4 days after treatment, compared to untreated control plants.

Assay [4] has as its system Green Peach Aphid (Myzus persicae, mixed life stages). Kind of assay: Green peach aphid, sprayed infested bell pepper plants. The note with it: 120 h, test concentration of 1415 ppm, after 5 days, relative to mortality on untreated control plants. The text has this:
The active compounds were formulated in cyclohexanone as a 10,000 ppm solution supplied in tubes. The tubes were inserted into an automated electrostatic sprayer equipped with an atomizing nozzle and they served as stock solutions for which lower dilutions were made in 50% acetone:50% water (v/v). A nonionic surfactant (Kinetic®) was included in the solution at a volume of 0.01 % (v/v). Bell pepper plants at the first true-leaf stage were infested prior to treatment by placing heavily infested leaves from the main colony on top of the treatment plants. Aphids were allowed to transfer overnight to accomplish an infestation of 30-50 aphids per plant and the host leaves were removed. The infested plants were then sprayed by an automated electrostatic plant sprayer equipped with an atomizing spray nozzle. The plants were dried in the sprayer fume hood, removed, and then maintained in a growth room under fluorescent lighting in a 24-hr photoperiod at about 25°C and about 20-40% relative humidity. Aphid mortality on the treated plants, relative to mortality on untreated control plants, was determined after 5 days.

In assay [5] the test system is Mediterranean fruitfly (Ceratitis capitata). Kind of assay: Mediterranean fruitfly control, insect diet in microtiter plates. Particulars: 120 h, test concentration of 1415 ppm, egg and larval mortality visually assessed after 5 days. On the procedure: For evaluating control of Mediterranean fruitfly (Ceratitis capitata) the test unit consisted of microtiter plates containing an insect diet and 50-80 C. capitata eggs. The compounds were formulated using a solution containing 75% v/v water and 25% v/v DMSO. Different concentrations of formulated compounds were sprayed onto the insect diet at 5 µl, using a custom built micro atomizer, at two replications. After application, microtiter plates were incubated at about 28 ± 1°C and about 80 ± 5 % relative humidity for 5 days. Egg and larval mortality was then visually assessed.

Assay [6] relates to Orchid thrips (Dichromothrips corbetti). Kind of assay: Orchid thrips, floral-immersion technique. The note with it: 96 h, test concentration of 100 ppm, after 4 days, in comparison with untreated controls. The procedure:
Dichromothrips corbetti adults used for bioassay were obtained from a colony maintained continuously under laboratory conditions. For testing purposes, the test compound was diluted to a concentration of 300 ppm (wt compound: vol diluent) in a 1:1 mixture of acetone:water (vol:vol), plus 0.01 % vol/vol Kinetic® surfactant. Thrips potency of each compound was evaluated by using a floral-immersion technique. Plastic petri dishes were used as test arenas. All petals of individual, intact orchid flowers were dipped into treatment solution and allowed to dry. Treated flowers were placed into individual petri dishes along with 10 - 15 adult thrips. The petri dishes were then covered with lids. All test arenas were held under continuous light and a temperature of about 28°C for duration of the assay. After 4 days, the numbers of live thrips were counted on each flower, and along inner walls of each petri dish. The level of thrips mortality was extrapolated from pre-treatment thrips numbers.

For assay [7], the system named is vetch aphid (Megoura viciae). Kind of assay: Vetch aphid control, broad bean leaf disks, contact or systemic. Particulars: foliar, 120 h, test concentration of 1415 ppm, aphid mortality visually assessed after 5 days.
Assay [8] deals with Rice brown plant hopper (Nilaparvata lugens). Kind of assay: Rice brown plant hopper, sprayed potted rice seedlings. Particulars: test concentration of 500 ppm, after 72 hours, in comparison with untreated controls. The procedure: Rice seedlings were cleaned and washed 24 hours before spraying. The active compounds were formulated in 50:50 acetone:water (vol:vol) and 0.1 % vol/vol surfactant (EL 620) was added. Potted rice seedlings were sprayed with 5 ml test solution, air dried, placed in cages and inoculated with 10 adults. Treated rice plants were kept at about 28-29°C and relative humidity of about 50-60%. Percent mortality was recorded after 72 hours.

As usually defined, the mortality is the percentage killed. A lower mortality goes with a weak lethal effect. As for `CCS(CC)=NC(=O)c1ccc(-c2cccc(-c3c([O-])[n+](Cc4cnc(Cl)s4)c4c(C)cccn4c3=O)c2)cc1` [Compound C-1], the mortality at 1415 ppm in assay [1], in assay [2], in assay [4] and in assay [5] was at least 75% throughout. The mortality at 500 ppm in assay [3] was at least 75%. In assay [6], this compound yielded a mortality at 100 ppm of at least 75%.
Regarding `CCS(CC)=NC(=O)c1cccc(-c2c([O-])[n+](Cc3ccc(Cl)nc3)c3ccccn3c2=O)c1` [Compound C-4, 1-[(6-chloro-3-pyridyl)methyl]-3-[3-[(diethyl-λ4-sulfanylidene)carbamoyl]phenyl]-4-oxo-pyrido[1,2-a]pyrimidin-1-ium-2-olate], in assay [3], the mortality at 500 ppm was at least 75%.
Consider `CC(C)S(=NC(=O)c1cccc(-c2c([O-])[n+](Cc3ccc(Cl)nc3)c3ccccn3c2=O)c1)C(C)C` [Compound C-5], for which the mortality at 500 ppm in assay [3] was at least 75%. The compound further yielded a mortality at 1415 ppm in assay [4] of at least 75%.
`CCS(=NC(=O)c1ccc(-c2cccc(-c3c([O-])[n+](Cc4ccc(Cl)nc4)c4ccccn4c3=O)c2)cc1)C1CC1` (centres unmarked) [Compound C-7]: the mortality at 500 ppm in assay [3] was at least 75%. The mortality at 1415 ppm in assay [4] and in assay [7] was at least 75% in each case.
On to `CC(C)S(=NC(=O)c1ccc(-c2cccc(-c3c([O-])[n+](Cc4ccc(Cl)nc4)c4ccccn4c3=O)c2)cc1)C(C)C` [Compound C-8], for which, in assay [3], the mortality at 500 ppm is at least 75%. In assay [4], this compound showed a mortality at 1415 ppm of at least 75%.
Consider `CCS(CC)=NC(=O)c1cccc(-c2cc(-c3c([O-])[n+](Cc4ccc(Cl)nc4)c4ccccn4c3=O)ccc2OC)c1` [Compound C-9], for which, in assay [4], the mortality at 1415 ppm is at least 75%.
The same measure, in the same setting: the figure for `CCS(CC)=NC(=O)c1cccc(-c2cc(-c3c([O-])[n+](Cc4cnc(Cl)s4)c4c(C)cccn4c3=O)ccc2Cl)c1` [Compound C-10] is at least 75%.
Still for that read-out and setting: the figure for `CCS(CC)=NC(=O)c1cccc(-c2cccc(-c3c([O-])[n+](Cc4ccc(Cl)nc4)c4ccccn4c3=O)c2)c1` [Compound C-11] is at least 75%; for `CCS(=NC(=O)c1cccc(-c2cccc(-c3c([O-])[n+](Cc4ccc(Cl)nc4)c4ccccn4c3=O)c2)c1)C1CC1` (centres unmarked) [Compound C-12] it is at least 75%.
Compound `CC(C)S(=NC(=O)c1cccc(-c2cccc(-c3c([O-])[n+](Cc4ccc(Cl)nc4)c4ccccn4c3=O)c2)c1)C(C)C` [Compound C-13] had a mortality at 500 ppm in assay [8] of at least 75%. Further, the mortality at 1415 ppm in assay [4] is at least 75%.
